In general, IC50 refers to the concentration at which inhibition is half-maximal. High values mean a need for much substance, low ones inhibition by little substance.

Common to all, as to assay: TG Activity Assays
The target in test [1] is T1, Protein-glutamine gamma-glutamyltransferase K (Homo sapiens, UniProt P22735).
T1 sequence (P22735 whole entry): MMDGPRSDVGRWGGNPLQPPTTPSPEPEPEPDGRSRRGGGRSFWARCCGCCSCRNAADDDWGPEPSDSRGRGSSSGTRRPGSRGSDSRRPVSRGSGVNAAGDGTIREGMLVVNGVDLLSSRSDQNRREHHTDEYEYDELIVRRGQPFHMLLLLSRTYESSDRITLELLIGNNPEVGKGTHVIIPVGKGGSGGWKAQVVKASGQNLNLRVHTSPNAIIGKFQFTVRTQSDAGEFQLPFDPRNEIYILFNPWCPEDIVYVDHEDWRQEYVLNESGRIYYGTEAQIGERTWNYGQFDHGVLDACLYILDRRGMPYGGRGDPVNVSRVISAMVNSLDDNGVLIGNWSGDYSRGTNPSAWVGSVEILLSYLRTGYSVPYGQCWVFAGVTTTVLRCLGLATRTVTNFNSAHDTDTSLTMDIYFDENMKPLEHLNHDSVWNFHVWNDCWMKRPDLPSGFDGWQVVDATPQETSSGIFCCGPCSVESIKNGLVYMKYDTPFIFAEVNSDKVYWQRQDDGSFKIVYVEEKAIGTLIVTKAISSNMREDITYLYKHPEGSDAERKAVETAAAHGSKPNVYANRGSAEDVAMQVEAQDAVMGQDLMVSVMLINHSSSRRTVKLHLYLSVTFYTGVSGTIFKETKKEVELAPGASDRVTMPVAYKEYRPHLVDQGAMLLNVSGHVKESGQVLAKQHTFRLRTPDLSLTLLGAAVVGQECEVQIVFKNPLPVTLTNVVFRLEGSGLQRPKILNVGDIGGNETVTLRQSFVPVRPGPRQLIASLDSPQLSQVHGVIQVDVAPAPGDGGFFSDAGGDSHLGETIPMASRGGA
How it is done: (§1) The incorporated biotinylated peptides were measured using horseradish peroxidase-conjugated streptavidin and then measured using o-phenylenediamine dihydrochloride substrates. The absorbance was measured at 490 nm using a microplat

Test [2] has as its target T2, Protein-glutamine gamma-glutamyltransferase E (Homo sapiens, UniProt Q08188).
T2 sequence (Q08188 whole entry): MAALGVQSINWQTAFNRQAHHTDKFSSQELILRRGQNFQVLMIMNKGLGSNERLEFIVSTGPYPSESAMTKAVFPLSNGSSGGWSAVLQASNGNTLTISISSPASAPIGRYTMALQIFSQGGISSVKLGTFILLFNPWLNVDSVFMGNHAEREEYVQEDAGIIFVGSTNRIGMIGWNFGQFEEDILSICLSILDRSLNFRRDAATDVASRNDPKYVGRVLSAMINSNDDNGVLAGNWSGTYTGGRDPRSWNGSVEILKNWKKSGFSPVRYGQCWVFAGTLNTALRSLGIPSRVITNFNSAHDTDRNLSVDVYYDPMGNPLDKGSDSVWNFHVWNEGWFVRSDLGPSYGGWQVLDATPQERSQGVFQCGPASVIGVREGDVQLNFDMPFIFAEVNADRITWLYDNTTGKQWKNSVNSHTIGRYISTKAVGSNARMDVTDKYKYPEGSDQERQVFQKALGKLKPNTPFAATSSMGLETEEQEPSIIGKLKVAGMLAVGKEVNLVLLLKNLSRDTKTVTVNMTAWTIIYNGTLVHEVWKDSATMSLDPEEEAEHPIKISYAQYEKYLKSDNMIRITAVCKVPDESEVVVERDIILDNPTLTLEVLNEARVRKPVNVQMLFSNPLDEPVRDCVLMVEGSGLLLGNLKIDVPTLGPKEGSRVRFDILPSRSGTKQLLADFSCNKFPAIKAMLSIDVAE
Here is the method: as §1

The target of test [3] is T3, Protein-glutamine gamma-glutamyltransferase 6 (Homo sapiens, UniProt O95932).
T3 sequence (O95932 whole entry): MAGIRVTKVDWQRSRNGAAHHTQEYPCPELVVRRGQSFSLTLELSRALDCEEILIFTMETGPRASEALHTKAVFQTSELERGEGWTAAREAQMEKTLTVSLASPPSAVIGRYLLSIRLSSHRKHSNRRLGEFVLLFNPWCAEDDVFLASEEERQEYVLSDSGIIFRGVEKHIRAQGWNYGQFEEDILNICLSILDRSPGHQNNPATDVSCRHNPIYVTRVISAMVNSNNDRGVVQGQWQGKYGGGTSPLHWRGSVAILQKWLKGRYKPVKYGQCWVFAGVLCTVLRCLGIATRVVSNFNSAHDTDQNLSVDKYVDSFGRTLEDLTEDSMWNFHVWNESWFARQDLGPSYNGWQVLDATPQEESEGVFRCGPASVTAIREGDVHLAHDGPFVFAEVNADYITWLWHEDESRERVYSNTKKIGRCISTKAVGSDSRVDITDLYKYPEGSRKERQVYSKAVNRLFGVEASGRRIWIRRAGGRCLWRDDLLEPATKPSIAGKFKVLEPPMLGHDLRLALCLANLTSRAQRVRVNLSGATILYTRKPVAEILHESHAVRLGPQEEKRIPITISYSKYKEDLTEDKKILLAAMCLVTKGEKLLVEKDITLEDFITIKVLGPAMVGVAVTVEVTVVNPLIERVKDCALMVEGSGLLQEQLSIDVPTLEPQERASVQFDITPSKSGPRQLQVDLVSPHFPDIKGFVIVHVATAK
How it is done:
as §1

Test [4] deals with T4, Protein-glutamine gamma-glutamyltransferase 2 (Homo sapiens, UniProt P21980).
T4 sequence (P21980 whole entry): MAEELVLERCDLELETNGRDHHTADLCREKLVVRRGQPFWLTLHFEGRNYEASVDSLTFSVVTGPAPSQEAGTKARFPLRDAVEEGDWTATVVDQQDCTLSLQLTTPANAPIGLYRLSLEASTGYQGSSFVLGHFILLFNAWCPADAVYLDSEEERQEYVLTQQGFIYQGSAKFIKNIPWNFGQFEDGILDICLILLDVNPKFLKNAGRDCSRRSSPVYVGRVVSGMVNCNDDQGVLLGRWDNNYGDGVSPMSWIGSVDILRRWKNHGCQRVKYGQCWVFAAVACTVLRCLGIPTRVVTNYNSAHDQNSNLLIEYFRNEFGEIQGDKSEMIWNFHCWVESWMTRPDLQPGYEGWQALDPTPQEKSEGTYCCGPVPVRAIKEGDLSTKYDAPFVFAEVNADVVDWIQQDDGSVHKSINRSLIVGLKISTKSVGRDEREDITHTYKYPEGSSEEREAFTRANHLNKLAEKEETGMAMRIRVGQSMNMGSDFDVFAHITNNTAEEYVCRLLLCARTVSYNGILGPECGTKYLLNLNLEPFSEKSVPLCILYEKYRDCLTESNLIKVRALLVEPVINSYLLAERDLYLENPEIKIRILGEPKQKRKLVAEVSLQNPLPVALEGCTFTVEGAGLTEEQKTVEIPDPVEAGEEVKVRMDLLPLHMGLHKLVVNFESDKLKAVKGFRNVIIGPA
How it is done:
as §1

Molecules are shown by their SMILES. Bounds are passed on as bounds.

In the case of `C=CC(=O)NCC(=O)N1CCN(C(=O)OCC23CC4CC(CC(C4)C2)C3)CC1` [1-Adamantylmethyl 4-[2-(prop-2-enoylamino)acetyl]piperazine-1-carboxylate (3f)], the IC50 in test [1] is more than 100 µM; in test [2], more than 100 µM; in test [3], more than 10 µM.
For `C=CC(=O)NCC(=O)N1CCN(C(=O)C23CC4CC(CC(C4)C2)C3)CC1` [N-[2-[4-(adamantane-1-carbonyl)piperazin-1-yl]-2-oxo-ethyl]prop-2-enamide (3e)], the IC50 in test [1] came out at 2.2 µM; in test [4] it was 0.125 µM; in test [2], 11 µM; in test [3], 2 µM.
The matching figures for `C[S+](C)CC(=O)NCC(=O)N1CCN(C(=O)OCC23CC4CC(CC(C4)C2)C3)CC1` [[2-[[2-[4-(1-Adamantylmethoxycarbonyl)piperazin-1-yl]-2-oxo-ethyl]amino]-2-oxoethyl]-dimethyl-sulfonium bromide (1f)]: more than 100 µM, 0.775 µM, more than 100 µM and more than 10 µM.
For the compound `C[S+](C)CC(=O)NCC(=O)N1CCN(C(=O)C23CC4CC(CC(C4)C2)C3)CC1` [[2-[[2-[4-(Adamantane-1-carbonyl)piperazin-1-yl]-2-oxo-ethyl]amino]-2-oxo-ethyl]-dimethyl-sulfonium bromide (1e)], the half-maximal inhibitory concentration (IC50) in test [1] is more than 100 µM; in test [4], 0.889 µM; in test [2], more than 100 µM; in test [3] it was more than 10 µM.
With `CN(C)c1cccc2c(S(=O)(=O)N3CCN(C(=O)CNC(=O)C[S+](C)C)CC3)cccc12` [[2-[[2-[4-[[5-(Dimethylamino)-1-naphthyl]sulfonyl]piperazin-1-yl]-2-oxo-ethyl]amino]-2-oxo-ethyl]-dimethyl-sulfonium bromide (1h)], the IC50 in test [1] was more than 100 µM; in test [2], more than 100 µM; in test [3] it was more than 10 µM.

The record behind these values is BindingDB's records for doi:10.1016/j.chembiol.2015.08.013 (Aston University, 2015).
